# Paper PMC6572064, “Discovery of 2-(1-(3-(4-Chloroxyphenyl)-3-oxo- propyl)pyrrolidine-3-yl)-1H-benzo[d]imidazole-4-carboxamide: A Potent Poly(ADP-ribose) Polymerase (PARP) Inhibitor for Treatment of Cancer” (Molecules, 2019)
# pIC50: −log10 of the molar value. Where two headings read alike, the source gives them in different places.
# How the values were obtained:
# [1] = system: MDA-MB-436 (a BRCA-1-mutated breast cancer cell line); assay: Cell proliferation assay, three-day, CellTiter-Glo, MDA-MB-436; type: cell-based; conditions: for inhibition at 0.00508 µM: MDA-MB-436, MDA-MB-436, Conc. 0.00508 uM; for inhibition at 0.0152 µM: MDA-MB-436, MDA-MB-436, Conc. 0.0152 uM; for inhibition at 0.0457 µM: MDA-MB-436, MDA-MB-436, Conc. 0.0457 uM; for inhibition at 0.41 µM: MDA-MB-436, MDA-MB-436, Conc. 0.41 uM; for inhibition at 1.23 µM: MDA-MB-436, MDA-MB-436, Conc. 1.23 uM; for inhibition at 3.7 µM: MDA-MB-436, MDA-MB-436, Conc. 3.70 uM; for inhibition at 11.11 µM: MDA-MB-436, MDA-MB-436, Conc. 11.11 uM; for inhibition at 33.33 µM: MDA-MB-436, MDA-MB-436, Conc. 33.33 uM; for inhibition at 100 µM: MDA-MB-436, MDA-MB-436, Conc. 100.00 uM
# Procedure, shortened: (§1)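 Luminescent ATP read-out (CellTiter-Glo, 60 min at room temperature) quantified viability after a 72 h compound exposure at 37 °C, 5% CO2. Compounds, diluted from DMSO stocks into growth medium, were added to cells plated the previous day.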
# PARP-1 = molecular target: T1, PARP-1 (Homo sapiens, UniProt P09874); assay: PARP-1 inhibition assay (PARP-1 Chemiluminescent Assay Kit, BPS Bioscience); type: biochemical; conditions: for inhibition at 0.01 µM: 10 nM compound
# T1 construct: purchased BPS Bioscience 80569
# T1 sequence (P09874 whole entry): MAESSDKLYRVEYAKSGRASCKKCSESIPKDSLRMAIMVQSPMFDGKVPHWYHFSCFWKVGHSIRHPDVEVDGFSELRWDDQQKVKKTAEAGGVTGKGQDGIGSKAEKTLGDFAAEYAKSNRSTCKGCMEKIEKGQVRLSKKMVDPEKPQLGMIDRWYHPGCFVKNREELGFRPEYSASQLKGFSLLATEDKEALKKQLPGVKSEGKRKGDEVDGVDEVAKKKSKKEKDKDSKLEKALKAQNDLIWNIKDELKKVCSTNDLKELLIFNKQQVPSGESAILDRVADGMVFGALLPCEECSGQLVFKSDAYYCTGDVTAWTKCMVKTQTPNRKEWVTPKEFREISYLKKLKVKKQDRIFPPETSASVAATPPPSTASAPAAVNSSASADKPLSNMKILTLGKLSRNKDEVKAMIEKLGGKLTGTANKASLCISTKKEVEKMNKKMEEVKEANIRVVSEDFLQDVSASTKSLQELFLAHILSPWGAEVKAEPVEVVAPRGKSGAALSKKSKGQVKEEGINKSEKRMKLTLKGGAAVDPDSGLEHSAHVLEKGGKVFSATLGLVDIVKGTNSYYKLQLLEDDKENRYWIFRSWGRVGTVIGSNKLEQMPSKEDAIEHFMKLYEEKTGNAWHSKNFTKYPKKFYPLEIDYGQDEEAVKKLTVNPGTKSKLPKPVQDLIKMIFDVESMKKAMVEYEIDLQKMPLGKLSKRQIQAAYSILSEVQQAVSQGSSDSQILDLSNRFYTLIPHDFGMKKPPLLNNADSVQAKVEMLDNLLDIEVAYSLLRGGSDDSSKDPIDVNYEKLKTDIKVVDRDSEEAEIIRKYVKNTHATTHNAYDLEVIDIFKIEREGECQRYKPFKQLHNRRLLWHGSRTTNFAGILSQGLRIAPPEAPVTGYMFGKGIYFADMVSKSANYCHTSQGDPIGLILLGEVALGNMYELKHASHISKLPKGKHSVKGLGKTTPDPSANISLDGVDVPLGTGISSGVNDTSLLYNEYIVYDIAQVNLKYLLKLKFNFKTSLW
# Experimental: (§2) The PARP-1 and PARP-2 inhibition assays were performed in outsourcing, by a CRO company, Shanghai Medicilon Inc. (Shanghai, China). […] Briefly, PARP-1 or PARP-2 biotinylated substrate was incubated with compounds or solvent control at varying concentrations and an assay buffer containing the PARP-1 or PARP-2 enzyme.
# PARP-2 = molecular target: T2, PARP-2 (Homo sapiens, UniProt Q9UGN5); assay: PARP-2 inhibition assay (PARP-2 Chemiluminescent Assay Kit, BPS Bioscience); type: biochemical; conditions: for inhibition at 0.01 µM: 10 nM compound
# T2 construct: purchased BPS Bioscience 80552
# T2 sequence (Q9UGN5 whole entry): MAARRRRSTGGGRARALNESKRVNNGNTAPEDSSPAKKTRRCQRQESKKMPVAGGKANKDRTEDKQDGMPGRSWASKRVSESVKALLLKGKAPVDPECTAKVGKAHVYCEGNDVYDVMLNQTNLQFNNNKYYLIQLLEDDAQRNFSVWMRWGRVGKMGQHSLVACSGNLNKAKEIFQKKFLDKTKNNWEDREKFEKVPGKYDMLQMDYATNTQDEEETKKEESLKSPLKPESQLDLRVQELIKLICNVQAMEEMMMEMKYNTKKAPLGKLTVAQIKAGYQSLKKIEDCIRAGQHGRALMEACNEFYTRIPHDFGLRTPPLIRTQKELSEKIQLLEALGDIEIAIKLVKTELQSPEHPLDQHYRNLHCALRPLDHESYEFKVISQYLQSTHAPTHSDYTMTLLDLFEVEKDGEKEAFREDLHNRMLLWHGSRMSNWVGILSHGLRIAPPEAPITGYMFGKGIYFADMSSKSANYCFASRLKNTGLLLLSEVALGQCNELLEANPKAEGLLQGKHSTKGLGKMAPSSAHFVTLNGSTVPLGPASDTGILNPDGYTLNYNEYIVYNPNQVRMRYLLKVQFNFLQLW
# Experimental: as §2
# [2] = system: CAPAN-1 (a BRCA-2-mutated pancreatic cancer cell line); assay: Cell proliferation assay, three-day, CellTiter-Glo, CAPAN-1; type: cell-based; conditions: for inhibition at 0.00508 µM: CAPAN-1, 0.00508 uM; for inhibition at 0.0152 µM: CAPAN-1, 0.0152 uM; for inhibition at 0.0457 µM: CAPAN-1, 0.0457 uM; for inhibition at […]: CAPAN-1, 0.14 uM; for inhibition at 0.41 µM: CAPAN-1, 0.41 uM; for inhibition at 1.23 µM: CAPAN-1, 1.23 uM; for inhibition at 3.7 µM: CAPAN-1, 3.70 uM; for inhibition at 11.11 µM: CAPAN-1, 11.11 uM; for inhibition at 33.33 µM: CAPAN-1, 33.33 uM; for inhibition at 100 µM: CAPAN-1, 100.00 uM
# Procedure, shortened: as §1
# [3] = Homo sapiens, replicate 1, read-out: Inh % 1
# [4] = Homo sapiens, replicate 2, read-out: Inh % 2
compound,measurement,setting,value
"NC(=O)c1cccc2[nH]c(C3CCN(CCCC(=O)c4ccccc4)C3)nc12 (centres unmarked) [Compound 5cc, 2-(1-(4-Oxo-4-phenylbutyl)pyrrolidin-3-yl)-1H-benzo[d]imidazole-4-carboxamide]",inhibition at 0.00508 µM,[1]; [3],-5%
same,inhibition at 0.00508 µM,[1]; [4],-0.000277%
same,inhibition at 0.0152 µM,[1]; [3],-5.6%
same,inhibition at 0.0152 µM,[1]; [4],-6.4%
same,inhibition at 0.0457 µM,[1]; [3],-12.8%
same,inhibition at 0.0457 µM,[1]; [4],-9.3%
same,inhibition at 0.41 µM,[1]; [3],-7.7%
same,inhibition at 0.41 µM,[1]; [4],-9%
same,inhibition at 1.23 µM,[1]; [3],-9.6%
same,inhibition at 1.23 µM,[1]; [4],-10.8%
same,inhibition at 3.7 µM,[1]; [3],-9.3%
same,inhibition at 3.7 µM,[1]; [4],-9.7%
same,inhibition at 11.11 µM,[1]; [3],-6.6%
same,inhibition at 11.11 µM,[1]; [4],-8.1%
same,inhibition at 33.33 µM,[1]; [3],62%
same,inhibition at 33.33 µM,[1]; [4],38.7%
same,inhibition at 100 µM,[1]; [3],99.6%
same,inhibition at 100 µM,[1]; [4],99.3%
same,pIC50,"[1]; Homo sapiens, MDA-MB-436, 72 h, CellTiter-Glo, read-out: MDA-MB-436 IC50",4.50
same,pIC50,"[1]; Homo sapiens, MDA-MB-436, 72 h, supplement Summary sheet, read-out: IC50",4.50
same,IC50,"[1]; Homo sapiens, MDA-MB-436, curve fit list, no unit in the cell, concentration in uM, read-out: IC50",31.9 µM
same,LogIC50,"[1]; MDA-MB-436, curve fit on Log (uM) concentrations",1.504
same,Bottom,"[1]; MDA-MB-436, curve fit parameter (Inh %)",-8.27
same,Top,"[1]; MDA-MB-436, curve fit parameter (Inh %), '= 100.0' is a constrained value",100
same,inhibition at 0.01 µM,"PARP-1; supplement sheet, read-out: 10 nM inhibition% PAPR-1",42.8%
same,inhibition at 0.01 µM,PARP-1; read-out: PARP-1 Inhibition % (10 nM),42.8%
same,pIC50,PARP-1; read-out: PARP-1 IC50,7.91
same,pIC50,"PARP-1; supplement sheet, read-out: IC50 PAPR-1",7.91
same,inhibition at 0.01 µM,"PARP-2; supplement sheet, read-out: 10 nM inhibition% PAPR-2",62.3%
same,inhibition at 0.01 µM,PARP-2; read-out: PARP-2 Inhibition % (10 nM),62.3%
same,pIC50,PARP-2; read-out: PARP-2 IC50,8.24
same,pIC50,"PARP-2; supplement sheet, read-out: IC50 PAPR-2",8.24
same,LogIC50,"[2]; CAPAN-1, curve-fit output, Log (uM)",1.317
same,pIC50,"[2]; Homo sapiens, CAPAN-1, 72 h, CellTiter-Glo, read-out: CAPAN-1 IC50",4.68
same,inhibition at 0.00508 µM,[2]; [3],-7.2%
same,inhibition at 0.00508 µM,[2]; [4],1.2%
same,inhibition at 0.0152 µM,[2]; [3],1.3%
same,inhibition at 0.0152 µM,[2]; [4],4.1%
same,inhibition at 0.0457 µM,[2]; [3],1.4%
same,inhibition at 0.0457 µM,[2]; [4],9%
same,inhibition at […],[2]; [3],8.1%
same,inhibition at […],[2]; [4],7.4%
same,inhibition at 0.41 µM,[2]; [3],22.4%
same,inhibition at 0.41 µM,[2]; [4],6.9%
same,inhibition at 1.23 µM,[2]; [3],18%
same,inhibition at 1.23 µM,[2]; [4],5.8%
same,inhibition at 3.7 µM,[2]; [3],5.7%
same,inhibition at 3.7 µM,[2]; [4],1.6%
same,inhibition at 11.11 µM,[2]; [3],14.5%
same,inhibition at 11.11 µM,[2]; [4],8.2%
same,inhibition at 33.33 µM,[2]; [3],93.8%
same,inhibition at 33.33 µM,[2]; [4],86.5%
same,inhibition at 100 µM,[2]; [3],100%
same,inhibition at 100 µM,[2]; [4],99.5%
same,pIC50,"[2]; Homo sapiens, CAPAN-1, 72 h, supplement Summary sheet, read-out: IC50",4.68
same,IC50,"[2]; Homo sapiens, CAPAN-1, curve-fit output, concentrations in uM, read-out: IC50",20.7 µM
